Results as given in PubChem BioAssay (NCI).
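In this assay, cells in 96-well plates receive the compound at five concentrations for 48 hours. Endpoints are linearly interpolated between the surrounding concentrations. Definition used: TGI = concentration required for complete inhibition of growth.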

Assays:
Assay in all cases: NCI-60 cell line screen, 48 h
A498 renal = system: A498 renal
TK-10 renal = system: TK-10 renal
UACC-62 melanoma = system: UACC-62 melanoma
SW-620 colon = system: SW-620 colon
ACHN renal = system: ACHN renal
M14 melanoma = system: M14 melanoma
SR leukemia = system: SR leukemia
T-47D breast = system: T-47D breast
HCC-2998 colon = system: HCC-2998 colon
NCI/ADR-RES ovarian = system: NCI/ADR-RES ovarian
EKVX NSCLC = system: EKVX NSCLC
HL-60(TB) leukemia = system: HL-60(TB) leukemia
SF-539 CNS = system: SF-539 CNS
OVCAR-4 ovarian = system: OVCAR-4 ovarian
MALME-3M melanoma = system: MALME-3M melanoma
LOX IMVI melanoma = system: LOX IMVI melanoma
RPMI-8226 leukemia = system: RPMI-8226 leukemia
CCRF-CEM leukemia = system: CCRF-CEM leukemia
BT-549 breast = system: BT-549 breast

Compound	TGI (A498 renal)	TGI (TK-10 renal)	TGI (UACC-62 melanoma)	TGI (SW-620 colon)	TGI (ACHN renal)	TGI (M14 melanoma)	TGI (SR leukemia)	TGI (T-47D breast)	TGI (HCC-2998 colon)	TGI (NCI/ADR-RES ovarian)	TGI (EKVX NSCLC)	TGI (HL-60(TB) leukemia)	TGI (SF-539 CNS)	TGI (OVCAR-4 ovarian)	TGI (MALME-3M melanoma)	TGI (LOX IMVI melanoma)	TGI (RPMI-8226 leukemia)	TGI (CCRF-CEM leukemia)	TGI (BT-549 breast)
O=P1(O)C=CC2(CCCC2)O1	> 100 µM	> 100 µM	> 100 µM	> 100 µM	> 100 µM	> 100 µM	> 100 µM	> 100 µM	> 100 µM	> 100 µM	> 100 µM	> 100 µM	> 100 µM	> 100 µM	> 100 µM	> 100 µM	–	–	–
C=CCOC(=O)N1[C@H]2C#C/C=C\C#C[C@]3(O)C(=O)C[C@H](C)[C@]24O[C@]43C2=CC(=O)C=CC21OC (some centres undefined)	38 µM	63.7 µM	> 100 µM	> 100 µM	63.6 µM	> 100 µM	29.9 µM	> 100 µM	77.6 µM	> 100 µM	> 100 µM	92.8 µM	45.8 µM	84.2 µM	> 100 µM	–	81.5 µM	79.5 µM	–
COc1ccc(C2=CC(c3ccccc3)n3nnnc3N2)cc1 (centres undefined)	–	–	> 100 µM	> 100 µM	> 100 µM	> 100 µM	> 100 µM	> 100 µM	–	> 100 µM	–	> 100 µM	> 100 µM	–	–	> 100 µM	> 100 µM	> 100 µM	–
COc1cc(-c2cn(S(=O)(=O)c3ccc(C)cc3)c3ccccc23)nc(-c2cn(S(=O)(=O)c3ccc(C)cc3)c3ccccc23)n1	> 100 µM	> 100 µM	> 100 µM	> 56.9 µM	> 100 µM	17 µM	> 100 µM	> 100 µM	> 100 µM	> 100 µM	> 100 µM	5.24 µM	0.592 µM	> 100 µM	–	> 100 µM	> 100 µM	24.7 µM	> 100 µM
Cc1cc(N(CCC#N)CCC#N)ccc1/C(N=Nc1ccc(Cl)cc1)=N\NC(=O)c1cc(Cl)ccc1O	> 100 µM	> 100 µM	> 100 µM	–	> 100 µM	> 100 µM	> 100 µM	> 100 µM	> 100 µM	> 100 µM	> 100 µM	–	73.6 µM	> 100 µM	> 100 µM	–	> 100 µM	> 100 µM	> 100 µM
CCOC(=O)c1c2c3c(cccc3[nH]c1=O)Sc1ncccc1-2	–	> 100 µM	35.2 µM	> 100 µM	> 100 µM	> 100 µM	> 100 µM	> 100 µM	> 100 µM	> 100 µM	> 100 µM	86.4 µM	> 100 µM	> 100 µM	> 100 µM	> 100 µM	38.4 µM	> 100 µM	> 100 µM
CC(=O)[C@@H]1[C@@H](OC(=O)CCC(C)COC2OC(CO)C(O)C(O)C2O)C[C@H]2[C@@H]3CC=C4C[C@@H](OC5OC(CO)C(OC6OC(C)C(O)C(O)C6O)C(O)C5OC5OC(C)C(O)C(O)C5O)CC[C@]4(C)[C@H]3CC[C@]12C (some centres undefined)	> 100 µM	> 100 µM	> 100 µM	> 100 µM	> 100 µM	> 100 µM	> 100 µM	> 100 µM	> 100 µM	–	> 100 µM	–	–	> 100 µM	> 100 µM	> 100 µM	> 100 µM	> 100 µM	> 100 µM
C=C(C)C(=O)O[C@H]1C/C(CO)=C/CCC(=C)C(OC(C)=O)[C@H]2OC(=O)C(=C)[C@H]12 (some centres undefined)	43 µM	–	23 µM	74.2 µM	22.9 µM	12.5 µM	17.5 µM	28 µM	32 µM	61.2 µM	–	–	33.6 µM	–	26.7 µM	27 µM	19.3 µM	6.2 µM	12.1 µM
NNC(=O)CSc1nc2ccc(I)cc2c(=O)n1Cc1ccccc1	33.2 µM	38.7 µM	40.4 µM	> 100 µM	40.2 µM	40.4 µM	61.2 µM	> 100 µM	55.6 µM	> 100 µM	33.2 µM	61 µM	52 µM	71.2 µM	–	> 100 µM	54.7 µM	19 µM	42.6 µM
COc1cc(C2SC(N)=Nc3c2c(C)nn3C(=O)c2ccccc2O)cc(OC)c1OC (centres undefined)	> 10 µM	> 10 µM	8.19 µM	> 10 µM	> 10 µM	> 10 µM	> 10 µM	> 10 µM	–	> 10 µM	> 10 µM	–	> 10 µM	> 10 µM	> 10 µM	> 10 µM	> 10 µM	> 10 µM	> 10 µM
COC(=O)c1c2c(cc3c1CC1(Cc4cc5c(c(C=O)c4C1)CCCC5)C3)CCCC2 (centres undefined)	> 100 µM	> 100 µM	> 100 µM	–	> 100 µM	> 100 µM	> 100 µM	> 100 µM	> 100 µM	> 100 µM	> 100 µM	59.9 µM	> 100 µM	> 100 µM	> 100 µM	> 100 µM	> 100 µM	–	–
O=C(Nc1nnc(-c2ccccc2)o1)C(SC(=S)N1CCCCC1)c1ccccc1 (centres undefined)	73.9 µM	> 100 µM	–	> 100 µM	75.7 µM	27.4 µM	> 100 µM	> 100 µM	–	33.2 µM	64.2 µM	8.38 µM	71.3 µM	> 100 µM	> 100 µM	18 µM	> 100 µM	14.1 µM	39.3 µM
Nc1ccc(S(=O)(=O)Nc2nnc(S(N)(=O)=O)s2)cc1	> 100 µM	> 100 µM	> 100 µM	> 100 µM	> 100 µM	> 100 µM	> 100 µM	> 100 µM	> 100 µM	> 100 µM	> 100 µM	> 100 µM	> 100 µM	> 100 µM	> 100 µM	> 100 µM	> 100 µM	–	> 100 µM
